For 15 molecules, TGI and GI50 results are on record in PubChem BioAssay (NCI).

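Each compound was tested at five concentrations against cells in 96-well plates for 48 hours. Here, GI50 denotes the concentration required for 50% inhibition of growth. TGI denotes the concentration required for complete inhibition of growth.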

Among the test systems are MALME-3M melanoma; HCT-15 colon; CAKI-1 renal; SN12C renal; CCRF-CEM leukemia; SK-MEL-2 melanoma; HOP-92 NSCLC; SNB-19 CNS; HL-60(TB) leukemia; UO-31 renal.
Holding throughout (assay): DTP human tumour cell line panel, 48 h

Turning to `Cc1cc2c(c(C(=O)NCC(=O)O)c1)Oc1c(cc(C)cc1C(=O)NCC(=O)O)S2`, the TGI in the test on MALME-3M melanoma, with HCT-15 colon, with CAKI-1 renal, in the test on SN12C renal, with CCRF-CEM leukemia and in the test on SK-MEL-2 melanoma was greater than 100 µM in each case. In addition, the TGI with HOP-92 NSCLC and in the test on SNB-19 CNS was greater than 100 µM each time.
On to `COC(=O)c1onc(C2OC(C)(C)OC2C(O)COC(c2ccccc2)(c2ccccc2)c2ccccc2)c1C(=O)OC` (centres undefined), for which the TGI in the test on HL-60(TB) leukemia, in the test on MALME-3M melanoma, in the test on HCT-15 colon, with UO-31 renal, in the test on SN12C renal and with CCRF-CEM leukemia was greater than 100 µM throughout. Moreover, the TGI with SK-MEL-2 melanoma, in the test with HOP-92 NSCLC and in the test with SNB-19 CNS was greater than 100 µM in each case.
Regarding `Oc1ccc2ccccc2c1OCc1nnc(CCCCCCCCc2nnc(COc3c(O)ccc4ccccc34)n2Nc2ccccc2)n1Nc1ccccc1`, the TGI (usually the concentration giving total growth inhibition) in the test with MALME-3M melanoma is 56.2 µM; in the test on HCT-15 colon, 77.7 µM; in the test on UO-31 renal, greater than 82 µM; in the test on CAKI-1 renal, greater than 56.5 µM; in the test on SN12C renal, greater than 100 µM; with SK-MEL-2 melanoma, greater than 76.6 µM. Moreover, the TGI in the test with HOP-92 NSCLC was 61.5 µM; with SNB-19 CNS, greater than 100 µM.
For the molecule `C/C(=C\Cc1ccc(F)cc1)CCCCCC/C(C)=C/Cc1ccc(F)cc1`, the TGI with HCT-15 colon was determined as 34.1 µM; in the test on UO-31 renal, 23.1 µM; in the test on CAKI-1 renal it was 25.5 µM; in the test with SN12C renal, 31.5 µM; in the test with CCRF-CEM leukemia, 42.6 µM; in the test with SK-MEL-2 melanoma, 37.2 µM. In addition, the TGI with HOP-92 NSCLC was 23.5 µM; in the test with SNB-19 CNS, 75.9 µM.
For the molecule `COc1c(C)c(C/C=C(\C)CCCC(C)CCCC(C)CCCC(C)C)c(OC)c2ccccc12` (centres undefined), the TGI with HCT-15 colon, in the test with UO-31 renal, in the test on CAKI-1 renal, in the test with SN12C renal, with CCRF-CEM leukemia and in the test on SK-MEL-2 melanoma was greater than 100 µM each time. In addition, the TGI with HOP-92 NSCLC and in the test with SNB-19 CNS was greater than 100 µM each time.
Take `CC/C=C/c1cc2c(cc1O)CCC1C2CC[C@@]2(C)C1CC[C@@H]2O` (some centres undefined): the TGI in the test on MALME-3M melanoma amounted to 15.8 µM; with HCT-15 colon it was 29.9 µM; in the test on UO-31 renal, 18.3 µM; with CAKI-1 renal, 13.7 µM; with SN12C renal, 18.7 µM; in the test with CCRF-CEM leukemia it was 14.8 µM. For the same molecule, the values for the TGI in the test with SK-MEL-2 melanoma, in the test with HOP-92 NSCLC and in the test with SNB-19 CNS were 6.29 µM, 26 µM and 17.4 µM, respectively. In addition, the GI50 (usually the concentration at which growth is held to half of that of the control) in the test with SN12C renal is 5.13 µM.
Take `O=S(=O)(/N=S(/Nc1ccccc1)C(F)(F)Cl)c1ccccc1` (centres undefined): the TGI in the test with HL-60(TB) leukemia, in the test on MALME-3M melanoma, with HCT-15 colon, with UO-31 renal, with SN12C renal and in the test with CCRF-CEM leukemia was greater than 100 µM each time. The TGI in the test on SK-MEL-2 melanoma, in the test on HOP-92 NSCLC and with SNB-19 CNS was greater than 100 µM in each case.
For `COc1ccc(/C=C2\CCCc3ccccc3C2=O)cc1`, the total growth inhibition concentration (TGI) was 9.55 µM with HL-60(TB) leukemia; greater than 100 µM in the test with MALME-3M melanoma; greater than 33.1 µM in the test with HCT-15 colon; greater than 100 µM with UO-31 renal; greater than 66.7 µM in the test with CAKI-1 renal; 16.9 µM in the test on SN12C renal. The TGI was determined as 24.8 µM in the test with CCRF-CEM leukemia and 88.1 µM in the test with HOP-92 NSCLC.
For the molecule `O=[N+]([O-])c1ccc(N2N=C(c3c(O)ccc4ccccc34)CC2c2ccc(Cl)cc2)c([N+](=O)[O-])c1` (centres undefined), the TGI was 63 µM with MALME-3M melanoma; greater than 100 µM in the test with HCT-15 colon; greater than 100 µM with UO-31 renal; 93.2 µM with CAKI-1 renal; greater than 100 µM in the test with SN12C renal; 31 µM in the test with CCRF-CEM leukemia. In addition, the TGI in the test with SK-MEL-2 melanoma is 44.2 µM; in the test on HOP-92 NSCLC, greater than 100 µM.
On to `COc1cccc(C(C#N)NNC(=O)c2c(Cl)c(Cl)c(Cl)c(Cl)c2-c2nc3ccc(C(=O)c4ccccc4)cc3[nH]2)c1O` (centres undefined), for which the TGI in the test with HL-60(TB) leukemia was greater than 100 µM; in the test with HCT-15 colon, greater than 100 µM; in the test with UO-31 renal, greater than 100 µM; with CAKI-1 renal, greater than 100 µM; in the test on SN12C renal, 7.79 µM; in the test on CCRF-CEM leukemia it was greater than 100 µM. For the same molecule, the TGI in the test on SK-MEL-2 melanoma is 29.4 µM; in the test with HOP-92 NSCLC it was greater than 100 µM; in the test with SNB-19 CNS it was 24.7 µM.
Turning to `COc1ccc(/C=c2\[nH]c3nc(=O)c(N4CCCCC4)c(N)n3c2=O)cc1`, the TGI in the test with HL-60(TB) leukemia, with MALME-3M melanoma, with HCT-15 colon, in the test on UO-31 renal, with CAKI-1 renal and with SN12C renal was greater than 100 µM in each case. Besides, the TGI with CCRF-CEM leukemia, in the test on HOP-92 NSCLC and in the test on SNB-19 CNS was greater than 100 µM each time.
Consider `Cc1cc(N2CCCCC2)nc2ccc(Cc3ccc4nc(N5CCCCC5)cc(C)c4c3)cc12`, for which the TGI in the test on MALME-3M melanoma, in the test with HCT-15 colon, with UO-31 renal, in the test on CAKI-1 renal, with SN12C renal and with SK-MEL-2 melanoma was greater than 100 µM throughout. Further, the TGI in the test on HOP-92 NSCLC and with SNB-19 CNS was greater than 100 µM in each case.
As for `Oc1c(Cl)cc2cc1-c1cc(cc(Cl)c1O)CCc1c(cc(Cl)c(O)c1Cl)-c1cc(Cl)c(c(Cl)c1O)/C=C\2`, the TGI was greater than 50 µM in the test on HL-60(TB) leukemia; 17.4 µM in the test with HCT-15 colon; greater than 50 µM in the test on CCRF-CEM leukemia; 17.5 µM with SK-MEL-2 melanoma; 34.7 µM in the test on HOP-92 NSCLC; 26 µM in the test with SNB-19 CNS.
As for `CC(C)[C@H](C)/C=C/[C@@H](C)C1CC[C@H]2[C@@]34C=C[C@]5(C[C@@H](O)CC[C@]5(C)[C@H]3CC[C@]12C)OO4` (some centres undefined), the total growth inhibition concentration (TGI) is 57.1 µM in the test on HL-60(TB) leukemia; greater than 100 µM with HCT-15 colon; greater than 100 µM in the test with UO-31 renal; 55.3 µM with CAKI-1 renal; 79.7 µM with SN12C renal; 88.8 µM in the test with SK-MEL-2 melanoma. Further, the total growth inhibition concentration (TGI) in the test with HOP-92 NSCLC was determined as 92.3 µM; in the test on SNB-19 CNS, 81.7 µM.
For `CN(C)C=N[C@@H](C(=O)O)c1ccccc1`, the TGI in the test on HL-60(TB) leukemia, in the test on MALME-3M melanoma, with HCT-15 colon, in the test on UO-31 renal, in the test with SN12C renal and with CCRF-CEM leukemia was greater than 100 µM in each case. For the same molecule, the TGI in the test with HOP-92 NSCLC and in the test on SNB-19 CNS was greater than 100 µM throughout.
